Source: patent publication US9006185B2, “Use of cell-permeable peptide inhibitors of the JNK signal transduction pathway for the treatment of various diseases” (Xigen Inflammation Ltd., priority 2008, dated 2015)
Read-outs that look alike come from different tables or passages of the source. Square brackets hold non-standard residues; d marks the D form. Ends that are not written are not given here.

Legend:
[1] = system: gerbil; conditions: transient global ischemia; cited from earlier work
[2] = system: primary embryonic cultures and differentiated PC12 cells; conditions: after trophic withdrawal; cited from earlier work
[3] = system: chick embryonic dorsal root ganglion, sympathetic, ciliary and motor neurons; conditions: cited from earlier work
[4] = system: TC-3 cells; test: Cellular import of fluorescein-labeled TAT and TAT-IB1(s) peptides; type: cell-based
Procedure: The ability of the L- and D-enantiomeric forms of TAT and TAT-IB1(s) peptides (“TAT-IB peptides”) to enter cells was evaluated. L-TAT, D-TAT, L-TAT-IB1(s), and D-TAT-IB1(s) peptides [SEQ ID NOs: 5, 6, 9 and 12, respectively] were labeled by N-terminal addition of a glycine residue conjugated to fluorescein. Labeled peptides (1 μM) were added to TC-3 cell cultures, which were maintained as described in Example 3. At predetermined times cells were washed with PBS and fixed for five minutes in ice-cold methanol-acetone (1:1) before being examined under a fluorescence microscope. Fluorescein-labeled BSA (1 μM, 12 moles/mole BSA) was used as a control.
Little to no signal was present at 48 hours.
Fluorescent signals from these all-D retro-inverso peptides were still very strong 1 week later, and the signal was only slightly diminished at 2 weeks post treatment.

[5] = system: JNK; conditions: JBDs; cited from earlier work
[6] = system: TC-3 cells; test: IL-1 induced pancreatic beta-cell death, peptide treatment; type: cell-based; conditions: one single addition 1 μM, two days of incubation with IL-1
Procedure: Inhibition of IL-1 induced pancreatic beta-cell death by the D-TAT-IB1(s) peptide was analyzed. TC-3 cells were incubated as described above for 30 minutes with one single addition of the indicated peptides (1, μM), then IL-1 (10 ng/ml) was added.
Apoptotic cells were then counted after two days of incubation with IL-1 by use of Propidium Iodide and Hoechst 33342 nuclear staining. A minimum of 1,000 cells were counted for each experiment. Standard Error of the Means (SEM) are indicated, n=5.
Long term inhibition of IL-1P induced cell-death by the D-TAT-IB1 peptide was also analyzed. TC-3 cells were incubated as above for 30 minutes with one single addition of the indicated peptides (1 μM), then IL-1 (10 ng/ml) was added, followed by addition of the cytokine every two days. Apoptotic cells were then counted after 15 days of incubation with IL-1 by use of propidium iodide and Hoechst 33342 nuclear staining. […] A minimum of 1.000 cells were counted for each experiment.

[7] = fluorescein labeled, 1 μM, TC-3 cells

Molecule: N#CC(c1ccnc(NCCc2cccnc2)n1)c1nc2ccccc2s1 (centres unmarked) [AS601245]
- delayed loss of hippocampal CA1 neurons [1]: significant protection against the delayed loss of hippocampal CA1 neurons

Molecule: CCSCc1ccc2c(c1)c1c3c(c4c5cc(CSCC)ccc5n5c4c1n2[C@H]1C[C@](O)(C(=O)OC)[C@]5(C)O1)CNC3=O [CEP-1347]
- neuronal survival [2]: promotes neuronal survival at dosages that inhibit activation of the c-Jun amino-terminal kinases
- long term survival of cultured neurons [3]: promote long term-survival

Molecule: Fluorescein-labeled BSA: fluorescein labeled bovine serum albumin, 12 moles fluorescein/mole BSA, control [reference compound]
- entry into cells (fluorescence microscopy) [4]: did not enter the cells

Molecule: GRKKRRQRRR (Description of sequence Peptide L-TAT (see Table 1))
- entry into cells (fluorescence microscopy) [4, 7]: efficiently and rapidly (less than five minutes) entered cells

Molecule: GRKKRRQRRRPPRPKRPTTLNLFPQVPRSQD [L-TAT-IB1(s)]
- entry into cells (fluorescence microscopy) [4, 7]: efficiently and rapidly (less than five minutes) entered cells

Molecule: IPSPSVEEPHKHRPTTLRLTTLGAQDS (Description of sequence Peptide IB2-long (see Table 1))
- efficiency in binding JNK relative to c-Jun or ATF2 [5]: approximately 100 fold

Molecule: PGTGCGDTYRPKRPTTLNLFPQVPRSQDT (Description of sequence peptide IB1-long (see Table 1))
- efficiency in binding JNK relative to c-Jun or ATF2 [5]: approximately 100 fold

Molecule: RRRQRRKKRG (D-amino acids; Description of sequence Peptide D-TAT (see Table 1))
- entry into cells (fluorescence microscopy) [4]: efficiently and rapidly (less than five minutes) entered cells
- stability inside the cells [4]: extremely stable inside the cells

Molecule: TDQSRPVQPFLNLTTPRKPRYTDPPRRRQRRKKRG (H-[dT][dD][dQ][dS][dR][dP][dV][dQ][dP][dF][dL][dN][dL][dT][dT][dP][dR][dK][dP][dR][dY][dT][dD][dP][dP][dR][dR][dR][dQ][dR][dR][dK][dK][dR]G-OH) [D-TAT-IB1]
- IL-1 induced apoptosis [6]: decreased IL-1 induced apoptosis to a similar extent as L-TAT-IB peptides
